US20250129430A1, “HIGH ATP-AFFINITY PROTEIN AS THERAPEUTIC TARGET FOR INTRACTABLE CANCER MOLECULAR SUBTYPES AND INHIBITOR THEREOF” (VeraVerse Co., Ltd., priority 2021, published 2025)

What was measured:
Assay in all cases: Cell viability drug screen, 12-point dose-response AUC
Type in all cases: cell-based, human
FU97 = system: FU97; set-up: Average Area Under the Viability Curve (AUC), AUC norm value: scale not given here; details: FU97 cells; 72 hours
Outline: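 Trapezoidal AUC of a 12-point, DMSO-normalized dose-response curve. Luminescent viability was measured after 72 h of exposure at 37° C to half-log serial dilutions (0.5% DMSO control), dosed 24 h after plating FU97 cells at 5×10^3 per well.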

MKN28 = MKN28 cells; 72 hours
Outline: (§1)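 Dose-response AUC reflects 72 h drug exposure of gastric cancer cells in a 12-point, half-log format, with viability read by luminescence and normalized to DMSO (0.5%).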

Hs746T = Hs746T cells (SEM subtype); 72 hours
Outline: as §1

SNU601 = SNU601 cells; 72 hours
Outline: as §1

YCC3 = YCC3 cells; 72 hours
Outline: as §1

YCC2 = YCC2 cells; 72 hours
Outline: as §1

SNU1967 = SNU1967 cells; 72 hours
Outline: as §1

MKN74 = MKN74 cells; 72 hours
Outline: as §1

SNU16 = SNU16 cells; 72 hours
Outline: as §1

SNU484 = SNU484 cells (SEM subtype); 72 hours
Outline: as §1

NCC59 = NCC59 cells; 72 hours
Outline: as §1

SNU216 = SNU216 cells (non-SEM subtype); 72 hours
Outline: as §1

SK4 = SK4 cells (SEM subtype); 72 hours
Outline: as §1

SNU668 = SNU668 cells (SEM subtype); 72 hours
Outline: as §1

KATO3 = KATO3 cells; 72 hours
Outline: as §1

NCC20 = NCC20 cells; 72 hours
Outline: as §1

NCC19 = NCC19 cells; 72 hours
Outline: as §1

MKN45 = MKN45 cells (non-SEM subtype); 72 hours
Outline: as §1

MKN1 = MKN1 cells; 72 hours
Outline: as §1

SNU638 = SNU638 cells; 72 hours
Outline: as §1

SNU719 = SNU719 cells; 72 hours
Outline: as §1

SNU620 = SNU620 cells; 72 hours
Outline: as §1

OCUM1 = OCUM1 cells; 72 hours
Outline: as §1

YCC11 = YCC11 cells (SEM subtype); 72 hours
Outline: as §1

NCC24 = NCC24 cells; 72 hours
Outline: as §1

SNU1750 = SNU1750 cells (SEM subtype); 72 hours
Outline: as §1

NCI_N87 = NCI_N87 cells; 72 hours
Outline: as §1

SNU1 = SNU1 cells; 72 hours
Outline: as §1

AGS = AGS cells (non-SEM subtype); 72 hours
Outline: as §1

`O=C(CCCCCCC(=O)Nc1ccccc1)NO` [Vorinostat (SAHA), Vorinostat] was tested. Which “Average Area Under the Viability Curve (AUC), AUC norm value” (from here on “Average Area Under the Viability Curve”) (FU97) did it give?
Its value is 0.2975.

And the “Average Area Under the Viability Curve” value (MKN28)?
Its value is −0.08142.

And the “Average Area Under the Viability Curve” value (Hs746T)?
The value was −0.04774.

What about the “Average Area Under the Viability Curve” value (SNU601) of the same compound?
Its value is 2.84.

And the “Average Area Under the Viability Curve” value (YCC3)?
Its value is 1.034.

What about the “Average Area Under the Viability Curve” value (YCC2) of the same compound?
The value was 0.09328.

What about the “Average Area Under the Viability Curve” value (SNU1967) of the same compound?
The value was −0.2574.

What about the “Average Area Under the Viability Curve” value (MKN74) of the same compound?
The value was −0.07666.

What about the “Average Area Under the Viability Curve” value (SNU16) of the same compound?
The value was −0.7875.

And the “Average Area Under the Viability Curve” value (SNU484)?
Its value is 1.041.

What about the “Average Area Under the Viability Curve” value (NCC59) of the same compound?
The value was 1.01.

And the “Average Area Under the Viability Curve” value (SNU216)?
Its value is −0.04999.

What about the “Average Area Under the Viability Curve” value (SK4) of the same compound?
The value was 0.6434.

What about the “Average Area Under the Viability Curve” value (SNU668) of the same compound?
Its value is 0.4303.

And the “Average Area Under the Viability Curve” value (KATO3)?
The value was 0.

What about the “Average Area Under the Viability Curve” value (NCC20) of the same compound?
Its value is −0.9328.

And the “Average Area Under the Viability Curve” value (NCC19)?
Its value is 0.2993.

And the “Average Area Under the Viability Curve” value (MKN45)?
The value was 2.416.

What about the “Average Area Under the Viability Curve” value (MKN1) of the same compound?
The value was 0.4282.

And the “Average Area Under the Viability Curve” value (SNU638)?
The value was −0.4313.

And the “Average Area Under the Viability Curve” value (SNU719)?
The value was 1.843.

What about the “Average Area Under the Viability Curve” value (SNU620) of the same compound?
Its value is 0.08594.

And the “Average Area Under the Viability Curve” value (OCUM1)?
The value was −0.5166.

What about the “Average Area Under the Viability Curve” value (YCC11) of the same compound?
Its value is −0.2285.

What about the “Average Area Under the Viability Curve” value (NCC24) of the same compound?
Its value is −0.3421.

And the “Average Area Under the Viability Curve” value (SNU1750)?
Its value is −0.5737.

What about the “Average Area Under the Viability Curve” value (NCI_N87) of the same compound?
Its value is 0.8986.

What about the “Average Area Under the Viability Curve” value (SNU1) of the same compound?
Its value is −0.2152.

And the “Average Area Under the Viability Curve” value (AGS)?
The value was −0.5947.
